PubChem BioAssay AID248 (DTP/NCI, 2004)
Values joined by “and” are separate entries in the source; they are usually repeats but may differ in a detail not shown here. Equal entries are not always repeated. Inconclusive results and toxic doses are left out.

Test system: L1210 leukemia ip in BDF1 mice, survival T/C
Experiment: NCI In Vivo Anticancer Drug Screen. Data for tumor model L1210 Leukemia (intraperitoneal) in B6D2F1 (BDF1) mice
Conditions: endpoint: mean survival time, higher = longer survival
Procedure, shortened: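 Ratio derived from survival: compound-dosed mice over vehicle-dosed mice, all bearing a transplantable tumor.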

[1] = dose: 100.0 mg/kg/injection, schedule: Q01DX009 (ip), vehicle: Klucel (hydroxypropylcellulose) (HPC)
[2] = dose: 100.0 mg/kg/injection, schedule: Q04DX003 (ip), vehicle: Klucel (hydroxypropylcellulose) (HPC)
[3] = dose: 200.0 mg/kg/injection, schedule: Q01DX009 (ip), vehicle: Klucel (hydroxypropylcellulose) (HPC)
[4] = dose: 200.0 mg/kg/injection, schedule: Q04DX003 (ip), vehicle: Klucel (hydroxypropylcellulose) (HPC)
[5] = dose: 400.0 mg/kg/injection, schedule: Q01DX009 (ip), vehicle: Klucel (hydroxypropylcellulose) (HPC)
[6] = dose: 100.0 mg/kg/injection, schedule: Q04DX003 (ip), vehicle: saline
[7] = dose: 200.0 mg/kg/injection, schedule: Q04DX003 (ip), vehicle: saline
[8] = dose: 400.0 mg/kg/injection, schedule: Q04DX003 (ip), vehicle: saline
[9] = dose: 200.0 mg/kg/injection, schedule: Q01DX009 (ip), vehicle: saline

## CCCCN(C=O)c1ccccc1
[1]
  T/C: 108 % of control
[2]
  T/C: 97 % of control
[3]
  T/C: 104 % of control
[4]
  T/C: 103 % of control
[5]
  T/C: 87 % of control
dose: 400.0 mg/kg/injection, schedule: Q04DX003 (ip), vehicle: Klucel (hydroxypropylcellulose) (HPC)
  T/C: 97 % of control

## O=c1nc2n(CCC[N+](=O)[O-])c3ccccc3nc-2c(=O)[nH]1
dose: 100.0 mg/kg/injection, schedule: Q01DX001 (ip), vehicle: saline
  T/C: 102 % of control
[6]
  T/C: 88 % of control
dose: 200.0 mg/kg/injection, schedule: Q01DX001 (ip), vehicle: saline
  T/C: 98 % of control
[7]
  T/C: 96 % of control
dose: 400.0 mg/kg/injection, schedule: Q01DX001 (ip), vehicle: saline
  T/C: 102 % of control
[8]
  T/C: 115 % of control

## CCN(CC)CCC(=O)c1cccs1
dose: 100.0 mg/kg/injection, schedule: Q01DX009 (ip), vehicle: saline
  T/C: 87 % of control
[9]
  T/C: 89 % of control

## O=C(CCCc1ccc(N(CCCl)CCCl)cc1)OCCc1ccccc1
dose: 25.0 mg/kg/injection, schedule: Q04DX002 (ip), vehicle: saline
  T/C: 111 % of control
dose: 50.0 mg/kg/injection, schedule: Q04DX002 (ip), vehicle: saline
  T/C: 114 % of control
dose: 100.0 mg/kg/injection, schedule: Q04DX002 (ip), vehicle: saline
  T/C: 124 % of control
dose: 200.0 mg/kg/injection, schedule: Q04DX002 (ip), vehicle: saline
  T/C: 112 % of control and 122 % of control
dose: 400.0 mg/kg/injection, schedule: Q04DX002 (ip), vehicle: saline
  T/C: 112 % of control

## COC(=O)C1(N)CCCC1
dose: 11.0 mg/kg/injection, schedule: Q01DX Z (ip), vehicle: carboxymethylcellulose (CMC)
  T/C: 94 % of control
dose: 22.0 mg/kg/injection, schedule: Q01DX Z (ip), vehicle: carboxymethylcellulose (CMC)
  T/C: 107 % of control
dose: 25.0 mg/kg/injection, schedule: Q01DX009 (ip), vehicle: saline
  T/C: 107 % of control
dose: 30.0 mg/kg/injection, schedule: Q01DX009 (ip), vehicle: saline
  T/C: 108 % of control
dose: 30.0 mg/kg/injection, schedule: Q01DX Z (ip), vehicle: saline
  T/C: 116 % of control
dose: 44.0 mg/kg/injection, schedule: Q01DX009 (ip), vehicle: saline
  T/C: 121 % of control
dose: 45.0 mg/kg/injection, schedule: Q01DX Z (ip), vehicle: saline
  T/C: 118 % of control
dose: 50.0 mg/kg/injection, schedule: Q01DX009 (ip), vehicle: saline
  T/C: 109 % of control
[1]
  T/C: 95 % of control
[2]
  T/C: 104 % of control and 113 % of control
[6]
  T/C: 102 % of control
dose: 150.0 mg/kg/injection, schedule: Q01DX009 (ip), vehicle: saline
  T/C: 95 % of control
dose: 150.0 mg/kg/injection, schedule: Q01DX Z (ip), vehicle: saline
  T/C: 104 % of control
[3]
  T/C: 104 % of control
[9]
  T/C: 119 % of control and 120 % of control
[4]
  T/C: 121 % of control and 124 % of control
[7]
  T/C: 118 % of control
dose: 300.0 mg/kg/injection, schedule: Q01DX Z (ip), vehicle: carboxymethylcellulose (CMC)
  T/C: 105 % of control and 115 % of control
[5]
  T/C: 121 % of control
dose: 400.0 mg/kg/injection, schedule: Q01DX009 (ip), vehicle: saline
  T/C: 98 % of control and 102 % of control
dose: 400.0 mg/kg/injection, schedule: Q01DX Z (ip), vehicle: carboxymethylcellulose (CMC)
  T/C: 113 % of control
[8]
  T/C: 152 % of control
dose: 500.0 mg/kg/injection, schedule: Q01DX Z (ip), vehicle: carboxymethylcellulose (CMC)
  T/C: 110 % of control

## Cc1ccc(C)c(CCN)c1
dose: 25.0 mg/kg/injection, schedule: Q01DX009 (ip), vehicle: saline with Tween-80
  T/C: 103 % of control
dose: 50.0 mg/kg/injection, schedule: Q01DX009 (ip), vehicle: saline with Tween-80
  T/C: 98 % of control
dose: 50.0 mg/kg/injection, schedule: Q04DX003 (ip), vehicle: saline with Tween-80
  T/C: 100 % of control
dose: 100.0 mg/kg/injection, schedule: Q01DX009 (ip), vehicle: saline with Tween-80
  T/C: 94 % of control
dose: 100.0 mg/kg/injection, schedule: Q04DX003 (ip), vehicle: saline with Tween-80
  T/C: 92 % of control

## O=C(Nc1ccc(S(=O)(=O)F)cc1)c1ccc(C(=O)Nc2ccc(S(=O)(=O)F)cc2)cc1
dose: 100.0 mg/kg/injection, schedule: Q01DX001 (ip), vehicle: carboxymethylcellulose (CMC)
  T/C: 102 % of control
dose: 200.0 mg/kg/injection, schedule: Q01DX001 (ip), vehicle: carboxymethylcellulose (CMC)
  T/C: 101 % of control
dose: 400.0 mg/kg/injection, schedule: Q01DX001 (ip), vehicle: carboxymethylcellulose (CMC)
  T/C: 96 % of control
